Activity calls are given as the source filed them. No cut-off for these calls is given here.
Key:
[1] = system: Acute myeloid leukemic cell; assay: Induction of ferroptosis in human Acute myeloid leukemic cells assessed as upregulation of HMOX1 protein level at 2.5 to 10 uM by Western blot analysis; assay type: functional, cell-based; settings: dose 2.5-10 µM
[2] = system: Acute myeloid leukemic cell; assay: Induction of ferroptosis in human Acute myeloid leukemic cells assessed as upregulation of FTH1 mRNA level by RT-qPCR analysis; assay type: functional, cell-based
MLL-AF9 [3] = assay: Antitumor activity against mouse MLL-AF9 cells allografted in female C57BL/6 mouse model assessed as reduction in splenomegaly at 50 mg/kg, ip administered once daily for 23 days; assay type: functional, organism-based; settings: time 23.0 day
[4] = Half life in ICR(CD-1) mouse at 5 mg/kg, iv treated up to 24 hrs by LC-MS/MS analysis; assay type: ADME, organism-based; settings: in vivo
U-937 [5] = assay: Effect on MYC gene expression in human U-937 cells at 10 uM incubated for 48 hrs by RT-qPCR; assay type: functional, cell-based
[6] = Half life in ICR(CD-1) mouse at 50 mg/kg, ip treated up to 24 hrs by LC-MS/MS analysis; assay type: ADME, organism-based; settings: in vivo
U-937 [7] = assay: Induction of ferroptosis in human U-937 cells assessed as increase in ferrous ion accumulation at 5 uM incubated for 48 hrs by RhoNox-1 staining based flow cytometry analysis; assay type: functional, cell-based
[8] = Cmax in ICR(CD-1) mouse at 50 mg/kg, ip treated up to 24 hrs by LC-MS/MS analysis; assay type: ADME, organism-based; settings: in vivo
[9] = Induction of cell apoptosis in human THP-1 cells at 5 uM incubated for 48 hrs by Annexin V/DAPI staining based flow cytometry analysis relative to control; assay type: functional
U-937 [10] = assay: Upregulation of Nrf2 transcription level in human U-937 cells by RNA-seq analysis; assay type: functional, cell-based
U-937 [11] = assay: Upregulation of p62 […] level in human U-937 cells at 2.5 to 10 uM incubated for 48 hrs by Western blot analysis; assay type: functional, cell-based; settings: dose 2.5-10 µM
U-937 [12] = assay: Induction of ferroptosis in human U-937 cells assessed as increase in ROS generation at 5 uM incubated for 48 hrs in presence of ferrostatin-1 by DCFH-DA staining based flow cytometry analysis; assay type: functional, cell-based
[13] = Tmax in ICR(CD-1) mouse at 50 mg/kg, ip treated up to 24 hrs by LC-MS/MS analysis; assay type: ADME, organism-based; settings: in vivo
U-937 [14] = assay: Induction of ferroptosis in human U-937 cells assessed as increase in cellular ROS accumulation at 10 uM in presence of Zinc protoporphyrin by flow cytometry analysis; assay type: functional, cell-based
OCI-AML2 [15] = assay: Induction of cell differentiation in human OCI-AML2 cells assessed as increase in CD11b expression at 5 uM incubated for 48 hrs by flow cytometry analysis; assay type: functional, cell-based
[16] = Clearance in ICR(CD-1) mouse at 5 mg/kg, iv treated up to 24 hrs by LC-MS/MS analysis; assay type: ADME, organism-based; settings: in vivo
[17] = system: Acute myeloid leukemic cell; assay: Induction of ferroptosis in human Acute myeloid leukemic cells assessed as upregulation of FTL mRNA level by RT-qPCR analysis; assay type: functional, cell-based
[18] = system: Acute myeloid leukemic cell; assay: Induction of ferroptosis in human Acute myeloid leukemic cells assessed as upregulation of TF protein level at 2.5 to 10 uM by Western blot analysis; assay type: functional, cell-based; settings: dose 2.5-10 µM
MLL-AF9 [19] = assay: Antitumor activity against mouse MLL-AF9 cells allografted in female C57BL/6 mouse model assessed as reduction in splenomegaly at 50 mg/kg, ip administered once daily for 23 days in presence of cytarabine; assay type: functional, organism-based; settings: time 23.0 day
U-937 [20] = assay: Upregulation of Nrf2 protein level in human U-937 cells at 2.5 to 10 uM incubated for 48 hrs by Western blot analysis; assay type: functional, cell-based; settings: dose 2.5-10 µM
[21] = MRT (0 to infinity) in ICR(CD-1) mouse at 50 mg/kg, ip treated up to 24 hrs by LC-MS/MS analysis; assay type: ADME, organism-based; settings: in vivo
U-937 [22] = assay: Cytotoxicity against human U-937 cells assessed as cell growth inhibition at 5 uM incubated for 24 to 48 hrs by cell counting assay; assay type: functional, cell-based; settings: time 24-48 hrs
U-937 [23] = assay: Antitumor activity against human U-937 cells assessed as cell growth inhibition incubated for 2 days by CCK-8 assay; settings: U-937, 48 h
[24] = Bioavailability in ICR(CD-1) mouse at 50 mg/kg, ip treated up to 24 hrs by LC-MS/MS analysis; assay type: ADME, organism-based; settings: in vivo
U-937 [25] = assay: Induction of cell apoptosis in human U-937 cells incubated for 48 hrs by Annexin V/DAPI staining based flow cytometry analysis; assay type: functional; settings: dose 2.5-10 µM
OCI-AML2 [26] = assay: Induction of cell cycle arrest in human OCI-AML2 cells assessed as accumulation of cells at G1 phase at 5 uM incubated for 48 hrs by EdU/DAPI staining based flow cytometry analysis; assay type: functional
[27] = system: Acute myeloid leukemic cell; assay: Induction of ferroptosis in human Acute myeloid leukemic cells assessed as downregulation of GPX4 level by Western blot analysis; assay type: functional, cell-based
[28] = system: Acute myeloid leukemic cell; assay: Induction of ferroptosis in human Acute myeloid leukemic cells assessed as upregulation of TF mRNA level by RT-qPCR analysis; assay type: functional, cell-based
[29] = system: Acute myeloid leukemic cell; assay: Induction of ferroptosis in human Acute myeloid leukemic cells assessed as upregulation of FTH1 protein level at 2.5 to 10 uM by Western blot analysis; assay type: functional, cell-based; settings: dose 2.5-10 µM
[30] = Toxicity in female C57BL/6 mouse model assessed as change in body weight at 50 mg/kg, ip administered once daily in presence of cytarabine; assay type: organism-based; settings: in vivo
U-937 [31] = assay: Effect on TP53 gene expression in human U-937 cells at 10 uM incubated for 48 hrs by RT-qPCR; assay type: functional, cell-based
U-937 [32] = assay: Induction of cell differentiation in human U-937 cells assessed as increase in CD14 expression at 5 uM incubated for 48 hrs by flow cytometry analysis; assay type: functional, cell-based
[33] = system: Acute myeloid leukemic cell; assay: Induction of ferroptosis in human Acute myeloid leukemic cells assessed as […] of ACSL4 mRNA level by RT-qPCR analysis; assay type: functional, cell-based
U-937 [34] = assay: Induction of ferroptosis in human U-937 cells assessed as increase in lipid peroxidation at 10 uM in presence of Zinc protoporphyrin by flow cytometry analysis; assay type: functional, cell-based
[35] = system: Acute myeloid leukemic cell; assay: Induction of ferroptosis in human Acute myeloid leukemic cells assessed as increase in ACSL4 level by Western blot analysis; assay type: functional, cell-based
[36] = Induction of cell apoptosis in human OCI-AML-3 cells at 5 uM incubated for 48 hrs by Annexin V/DAPI staining based flow cytometry analysis relative to control; assay type: functional
U-937 [37] = assay: Upregulation of p62 mRNA level in human U-937 cells by qRT-PCR analysis; assay type: functional, cell-based
U-937 [38] = assay: Induction of ferroptosis in human U-937 cells assessed as increase in malondialdehyde level at 5 uM incubated for 48 hrs; assay type: functional, cell-based
[39] = Cytotoxicity against HEK293T cells assessed as cell viability incubated for 2 days by CCK-8 assay; assay type: toxicity, cell-based, HEK-293T; settings: human
U-937 [40] = assay: Induction of ferroptosis in human U-937 cells assessed as increase in ferrous ion accumulation at 100 uM incubated for 48 hrs by RhoNox-1 staining based flow cytometry analysis; assay type: functional, cell-based
U-937 [41] = assay: Induction of ferroptosis in human U-937 cells assessed as increase in lipid peroxidation accumulation at 5 uM incubated for 48 hrs in presence of ferrostatin-1 by C11-BODIPY 581/591 staining based flow cytometry analysis; assay type: functional, cell-based

O=C(NO)c1cccc2[nH]c(C#Cc3cccc(C(F)(F)F)c3)cc12
Activity [1]: Active | Activity [2]: Active | Activity (MLL-AF9 [3]): Active | half-life [4]: 0.82 h | Activity (U-937 [5]): Active | half-life [6]: 8.95 h | Activity (U-937 [7]): Active | Cmax [8]: 2920 ng/mL | Activity [9]: ~20% | Activity (U-937 [10]): inactive | Activity (U-937 [11]): Active | Activity (U-937 [12]): inactive | Tmax [13]: 4.8 min | Activity (U-937 [14]): Active | Activity (OCI-AML2 [15]): Active | clearance [16]: 134 mL/min/kg | Activity [17]: Active | Activity [18]: Active | Activity (MLL-AF9 [19]): Active | Activity (U-937 [20]): Active | MRT inf [21]: 6.03 h | Activity (U-937 [22]): Active | IC50 (U-937 [23]): 9.66 µM | bioavailability [24]: 32% | Activity (U-937 [25]): Dose-dependent-effect | Activity (OCI-AML2 [26]): Dose-dependent-effect | Activity [27]: Active | Activity [28]: Active | Activity [29]: Active | Activity [30]: Non-toxic | Activity (U-937 [31]): Active | Activity (U-937 [32]): Active | Activity [33]: Active | Activity (U-937 [34]): Active | Activity [35]: Active | Activity [36]: ~20% | Activity (U-937 [37]): Active | Activity (U-937 [38]): Active | IC50 at 2 days [39]: 80 µM | Activity (U-937 [40]): Active | Activity (U-937 [41]): inactive

— ChEMBL document CHEMBL6134843, “HDAC11 Inhibition as a Potential Therapeutic Strategy for AML: Target Identification, Lead Discovery, Antitumor Potency, and Mechanism Investigation” (J Med Chem, 2025)
